According to patent US20120141561A1, “NANOPARTICULATE CANDESARTAN CILEXITIL COMPOSITIONS, PROCESS FOR THE PREPARATION THEREOF AND PHARMACEUTICAL COMPOSITIONS CONTAINING THEM” (priority 2009, published 2012):
One block for each compound: values may come before it.

Key:
[1] = rat, in vivo, po, 10 mg/kg
Procedure: In Vivo Pharmacokinetic Tests Male Sprague-Dawley Rats in Fasted Condition
Comparative In Vivo Pharmacokinetic Tests in Male Sprague-Dawley Rats in Fasted Condition
Both test substances were administered via gastric tube in a dosing volume of 5 ml/kg. The vehicle of the test items was sterile 0.9% NaCl solution and the suspension was kept homogenous by continuous stirring during treatment in order to minimize the error resulting from the sedimentation.
Male Wistar rats (purchased from Laboratory Animal Center, University of Szeged) were maintained on a standard pellet rodent diet (Bioplan Ltd, Isaszeg, Hungary) under temperature and light-controlled conditions with tap water available ad libitum. The acclimatization period was at least 4 days. […] All animals were fasting for 16 hours before oral treatment. […] Water was available immediately after treatment for all animals. […] Serum samples were prepared by centrifugation (7000 rpm, 10 min, 4° C.) of the clotted blood within 60 minutes and were stored at −20° C. till analysis.
An aliquot of 200 μl serum was combined with 20 μl of internal standard working solution and 1.2 ml methanol for protein precipitation. The mixture was vortexed for 1 min and centrifuged at 12000 rpm for 10 min at 4° C. The supernatants were evaporated to dryness under a stream of nitrogen at 40° C. and reconstituted with 200 μl of water-methanol (50:50 v/v) and 20 μl was injected into the HPLC system.
Statistical analysis and graph drawing were carried out be GraphPad Prism 4.0 (GraphPad Software, San Diego, USA).

[2] = Comparative dissolution test in distillate water; type: physicochemical; settings: 5 mg in 10 mL distillate water
Procedure: The suspension was stirred for 1, 5, 10, 15, 20, and 30 minutes and then it was filtered by 0.2 μm disposable syringe filter.

[3] = cited from earlier work
[4] = monotherapy, 108 of 3260 patients; cited from earlier work
[5] = cited from earlier work; remark: listed apart in the source
[6] = rats; cited from earlier work
[7] = intravenous dose of 14C-labeled Candesartan

- AUC15-120 min [1]: 120.8 µg·min/mL
- AUC15-360 min [1]: 420.2 µg·min/mL
- maximal serum Candesartan concentration (Cmax) [1]: 1612 ± 248 ng/mL
- tmax [1]: 2 h
- Candesartan Cilexetil content in distilled water by UV-VIS [2]: cannot be detected
Structure (SMILES): CCOc1nc2cccc(C(=O)OC(C)OC(=O)OC3CCCCC3)c2n1Cc1ccc(-c2ccccc2-c2nnn[nH]2)cc1 (racemic) [Candesartan Cilexetil, (±)-1-Hydroxyethyl 2-ethoxy-1-[p-(o-1H-tetrazol-5-ylphenyl)benzyl]-7-benzimidazolecarboxylate, cyclohexyl carbonate (ester)]
- solubility in methanol ([3]; methanol): sparingly soluble
- solubility in water ([3]; water): practically insoluble
- rate of withdrawals due to adverse events [4]: 3.3%

Structure (SMILES): CCOc1nc2cccc(C(=O)O)c2n1Cc1ccc(-c2ccccc2-c2nnn[nH]2)cc1 [Candesartan]
- dose excreted unchanged in urine ([5]; administered orally): about 26%
- effect of food with a high fat content on bioavailability ([5]; after Candesartan Cilexetil administration): does not affect
- absolute bioavailability of Candesartan ([5]; following administration of Candesartan Cilexetil): 15%
- bound to plasma proteins ([5]; in vivo): > 99%
- elimination half-life ([5]; in vivo): approximately 9 hours
- penetration of red blood cells ([5]; in vivo): does not penetrate red blood cells
- renal clearance ([5]; in vivo): 0.19 mL/min/kg
- total plasma clearance ([5]; in vivo): 0.37 mL/min/kg
- volume of distribution ([5]; in vivo): 0.13 L/kg
- radioactivity recovered in feces [5, 7]: approximately 36%
- radioactivity recovered in urine [5, 7]: approximately 59%
- accumulation in serum ([5]; repeated once-daily dosing): do not accumulate
- crossing of the blood-brain barrier [6]: crosses the blood-brain barrier poorly, if at all
- passage across the placental barrier [6]: passes across the placental barrier and is distributed in the fetus
